From ChEMBL document CHEMBL2146420, “RXR Partial Agonist CBt-PMN Exerts Therapeutic Effects on Type 2 Diabetes without the Side Effects of RXR Full Agonists” (ACS Med Chem Lett, 2012)
Active and inactive are the calls of the source. No cut-off for these calls is given here.

Experiments:
[1] = molecular target: T1, Peroxisome proliferator-activated receptor gamma (Homo sapiens) (UniProt P37231); assay: Agonist activity at PPARgamma expressed in […] Cos1 cells after 18 hrs by SEAP reporter gene assay; assay type: functional, cell-based
T1 sequence (whole entry): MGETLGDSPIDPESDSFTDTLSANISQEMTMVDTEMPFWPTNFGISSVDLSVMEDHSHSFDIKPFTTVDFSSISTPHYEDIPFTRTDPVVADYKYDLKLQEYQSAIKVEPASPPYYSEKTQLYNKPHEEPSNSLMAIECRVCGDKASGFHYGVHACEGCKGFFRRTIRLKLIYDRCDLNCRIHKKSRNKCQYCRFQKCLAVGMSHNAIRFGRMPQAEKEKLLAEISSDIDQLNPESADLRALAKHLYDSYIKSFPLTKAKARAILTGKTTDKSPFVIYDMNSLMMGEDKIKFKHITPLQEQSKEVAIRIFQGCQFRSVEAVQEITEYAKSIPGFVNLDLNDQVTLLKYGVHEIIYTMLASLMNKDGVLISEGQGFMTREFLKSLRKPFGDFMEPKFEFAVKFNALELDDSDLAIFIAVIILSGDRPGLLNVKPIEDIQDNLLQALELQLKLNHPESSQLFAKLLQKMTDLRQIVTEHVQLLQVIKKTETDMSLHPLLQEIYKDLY

Rattus norvegicus = assay: Toxicity in male Sprague-Dawley rat assessed as enlarged testes at 30 mg/kg/day, po for 28 days relative to vehicle-treated control; assay type: organism-based, Testis; design: route oral; details: in vivo, 672 h
Mus musculus [2] = assay: Toxicity in ICR mouse assessed as increase in body weight at 30 mg/kg/day, po for 7 days relative to vehicle-treated control; assay type: organism-based; design: route oral; details: in vivo, 168 h
[3] = molecular target: T2, Retinoic acid receptor RXR-alpha (Homo sapiens) (UniProt P19793); assay: Agonist activity at RXRalpha expressed in […] Cos1 cells after 18 hrs by SEAP reporter gene assay; assay type: functional, cell-based
T2 sequence (whole entry): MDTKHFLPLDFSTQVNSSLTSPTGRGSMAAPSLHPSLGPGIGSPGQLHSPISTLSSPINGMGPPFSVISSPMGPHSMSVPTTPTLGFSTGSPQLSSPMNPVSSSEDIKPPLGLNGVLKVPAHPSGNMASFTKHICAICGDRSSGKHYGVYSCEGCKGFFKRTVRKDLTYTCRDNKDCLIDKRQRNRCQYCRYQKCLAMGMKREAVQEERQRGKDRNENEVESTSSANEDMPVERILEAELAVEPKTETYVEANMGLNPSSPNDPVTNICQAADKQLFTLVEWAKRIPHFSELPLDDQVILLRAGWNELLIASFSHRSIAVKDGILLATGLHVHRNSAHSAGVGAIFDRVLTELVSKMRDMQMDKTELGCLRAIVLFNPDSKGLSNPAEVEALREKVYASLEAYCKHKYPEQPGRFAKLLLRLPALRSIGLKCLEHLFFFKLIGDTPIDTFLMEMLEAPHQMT

[4] = molecular target: Retinoic acid receptor RXR-alpha/oxysterols receptor LXR-alpha (Homo sapiens) (UniProt P19793+Q13133); assay: Agonist activity at LXRalpha/RXRalpha expressed in […] Cos1 cells after 18 hrs by SEAP reporter gene assay; assay type: functional, cell-based
[5] = molecular target: RXR alpha/PPAR gamma (Homo sapiens) (UniProt P37231+P19793); assay: Agonist activity at PPARgamma/RXRalpha expressed in […] Cos1 cells after 18 hrs by SEAP reporter gene assay; assay type: functional, cell-based
Mus musculus [6] = assay: Toxicity in ICR mouse assessed as increase in liver weight at 30 mg/kg/day, po for 7 days relative to vehicle-treated control; assay type: organism-based; design: route oral; details: in vivo, 168 h
Serum = assay: Drug level in ICR mouse serum at 30 mg/kg, po; assay type: ADME, organism-based; design: dose 30 mg/kg, route oral; details: in vivo, read-out: Drug uptake
[7] = molecular target: T3, Oxysterols receptor LXR-alpha (Homo sapiens) (UniProt Q13133); assay: Agonist activity at LXRalpha expressed in […] Cos1 cells after 18 hrs by SEAP reporter gene assay; assay type: functional, cell-based
T3 sequence (whole entry): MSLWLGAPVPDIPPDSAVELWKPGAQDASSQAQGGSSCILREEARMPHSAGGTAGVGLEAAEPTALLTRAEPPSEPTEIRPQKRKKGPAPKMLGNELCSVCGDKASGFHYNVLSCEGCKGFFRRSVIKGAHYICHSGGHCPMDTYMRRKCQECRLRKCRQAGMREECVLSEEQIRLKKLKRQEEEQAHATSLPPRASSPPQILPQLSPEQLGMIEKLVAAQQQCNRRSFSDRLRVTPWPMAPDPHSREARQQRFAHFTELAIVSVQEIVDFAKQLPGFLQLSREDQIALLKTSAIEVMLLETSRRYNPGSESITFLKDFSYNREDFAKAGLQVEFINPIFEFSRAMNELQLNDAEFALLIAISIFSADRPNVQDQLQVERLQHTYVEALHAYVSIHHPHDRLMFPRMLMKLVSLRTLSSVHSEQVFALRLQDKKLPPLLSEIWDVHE

Mus musculus [8] = assay: Toxicity in KK-Ay mouse assessed as increase in total cholesterol level at 10 mg/kg/day, po administered for 14 days relative to vehicle-treated control; assay type: organism-based; design: route oral; details: in vivo, 336 h
Mus musculus [9] = assay: Antidiabetic activity in diabetic, obese KK-Ay mouse assessed as blood glucose level at 10 mg/kg/day, po administered for 14 days measured on day 3 after starting of dosing (reference value: 500 mg/dL); assay type: functional
Mus musculus [10] = assay: Upregulation of Irs1 mRNA expression in KK-Ay mouse liver at 10 mg/kg/day, po administered for 14 days by RT-PCR analysis; assay type: functional, organism-based
Mus musculus [11] = assay: Toxicity in KK-Ay mouse assessed as increase in liver weight at 10 mg/kg/day, po administered for 14 days relative to vehicle-treated control; assay type: organism-based; design: route oral; details: in vivo, 336 h
Mus musculus [12] = assay: Toxicity in KK-Ay mouse assessed as increase in body weight at 10 mg/kg/day, po administered for 14 days relative to vehicle-treated control; assay type: organism-based; design: route oral; details: in vivo, 336 h
Mus musculus [13] = assay: Downregulation of Pck mRNA expression in KK-Ay mouse liver at 10 mg/kg/day, po administered for 14 days by RT-PCR analysis; assay type: functional, organism-based
Mus musculus [14] = assay: Antidiabetic activity in diabetic, obese KK-Ay mouse assessed as increase in adiponectin level at 10 mg/kg/day, po administered for 14 days by oral glucose tolerance test; assay type: functional, organism-based
Mus musculus [15] = assay: Upregulation of Irs2 mRNA expression in KK-Ay mouse liver at 10 mg/kg/day, po administered for 14 days by RT-PCR analysis; assay type: functional, organism-based
Mus musculus [16] = assay: Upregulation of Slc2a1 mRNA expression in KK-Ay mouse liver at 10 mg/kg/day, po administered for 14 days by RT-PCR analysis; assay type: functional, organism-based
Mus musculus [17] = assay: Upregulation of Slc2a2 mRNA expression in KK-Ay mouse liver at 10 mg/kg/day, po administered for 14 days by RT-PCR analysis; assay type: functional, organism-based
Mus musculus [18] = assay: Toxicity in ICR mouse assessed as increase in serum triglyceride level at 30 mg/kg/day, po for 7 days relative to vehicle-treated control; assay type: organism-based; design: route oral; details: in vivo, 168 h
Mus musculus [19] = assay: Upregulation of Fasn mRNA expression in KK-Ay mouse liver at 10 mg/kg/day, po administered for 14 days by RT-PCR analysis; assay type: ADME, organism-based; design: route oral; details: in vivo, 336 h
Mus musculus [20] = assay: Upregulation of Scd1 mRNA expression in KK-Ay mouse liver at 10 mg/kg/day, po administered for 14 days by RT-PCR analysis; assay type: ADME, organism-based; design: route oral; details: in vivo, 336 h
Mus musculus [21] = assay: Upregulation of Srebp1c mRNA expression in KK-Ay mouse liver at 10 mg/kg/day, po administered for 14 days by RT-PCR analysis; assay type: functional, organism-based
Mus musculus [22] = assay: Downregulation of G6p mRNA expression in KK-Ay mouse liver at 10 mg/kg/day, po administered for 14 days by RT-PCR analysis; assay type: functional, organism-based
Mus musculus [23] = assay: Toxicity in KK-Ay mouse assessed as increase in serum triglyceride level at 10 mg/kg/day, po administered for 14 days relative to vehicle-treated control; assay type: organism-based; design: route oral; details: in vivo, 336 h

| Activity [1] | Activity [4] | Activity [5] | concentration (Serum) [nM] | Activity [7] | Compound | Activity (Rattus norvegicus) | Activity (Mus musculus [2]) | Activity (Mus musculus [6]) | further results |
| --- | --- | --- | --- | --- | --- | --- | --- | --- | --- |
| inactive | Active | Active | 1000 | Active | Cc1cc2c(cc1-n1c(C)nc3cc(C(=O)O)ccc31)C(C)(C)CCC2(C)C | Non-toxic | Toxic | Toxic | Activity [3]: Active |
|  |  |  | 1000 |  | Cc1cc2c(cc1-n1nnc3cc(C(=O)O)ccc31)C(C)(C)CCC2(C)C |  |  |  |  |
| inactive | Active | Active | 1000 | Active | CCN(c1ccc2c(c1)C(C)(C)CCC2(C)C)c1ccc(C(=O)O)cn1 | Non-toxic | Toxic | Toxic | Activity (Mus musculus [8]): Toxic; Activity (Mus musculus [9]): 300 mg/dL; Activity (Mus musculus [10]): inactive; Activity (Mus musculus [11]): Toxic; Activity (Mus musculus [12]): Toxic; Activity (Mus musculus [13]): inactive; Activity (Mus musculus [14]): Active; Activity (Mus musculus [15]): inactive; Activity (Mus musculus [16]): inactive; Activity (Mus musculus [17]): inactive; Activity (Mus musculus [18]): Toxic; Activity (Mus musculus [19]): Toxic; Activity (Mus musculus [20]): Toxic; Activity (Mus musculus [21]): inactive; Activity (Mus musculus [22]): inactive; Activity (Mus musculus [23]): Toxic |
